In brackets after ≈: the same amount, converted by molar mass.
Legend:
[1] = tested on: blood platelets in platelet rich plasma; test: Collagen aggregation of blood platelets in platelet rich plasma; type: cell-based; conditions: Oryctolagus cuniculus; platelet rich plasma (rabbit)
[2] = tested on: normotensive and spontaneously hypertensive conscious rats; test: Oral administration to normotensive and spontaneously hypertensive conscious rats, mean arterial blood pressure; type: in vivo, rat; conditions: for maximal mean arterial blood pressure reduction: oral
Experimental: In vivo testing included vasodilating results in the ganglion-blocked, angiotensin-II supported rat and antihypertensive screening in either the spontaneous hypertensive rat (SHR) or DOCA salt rats. In general, vasodilating activity paralleled calcium blocking activity for members of the instant series. […] A most preferred compound, BMY 20064 [drawing 21] was administered orally to both normotensive and spontaneously hypertensive conscious rats. Doses of 1 and 10 mg/kg elicited maximal mean arterial blood pressure reductions of 25 and 53 mmHg, respectively, in the normotensive rat group and 34 and 100 mmHg, respectively, in the spontaneously hypertensive rat group.

Compound | EC50 [1] [µg/mL] | onset of mean arterial blood pressure response ([2]; both groups (normotensive and SHR), oral 1 and 10 mg/kg) [min] | persistence of mean arterial blood pressure response ([2]; both groups, after the higher dose (10 mg/kg oral)) [h] | maximal mean arterial blood pressure reduction ([2]; normotensive conscious rats, 1 mg/kg) [mmHg] | maximal mean arterial blood pressure reduction ([2]; normotensive conscious rats, 10 mg/kg) [mmHg] | maximal mean arterial blood pressure reduction ([2]; spontaneously hypertensive conscious rats, 1 mg/kg) [mmHg] | maximal mean arterial blood pressure reduction ([2]; spontaneously hypertensive conscious rats, 10 mg/kg) [mmHg]
COC(=O)C1=C(C)NC(C)=C(C(=O)OCCCN2CCN(c3ccccc3OC)CC2)C1c1cccc([N+](=O)[O-])c1 (stereo not drawn) [BMY 20064] | 11 (≈ 19.5 µM) | < 10 | > 4 | 25 | 53 | 34 | 100
COC(=O)C1=C(C)NC(C)=C(C(=O)OC)C1c1ccccc1[N+](=O)[O-] [Nifedipine, 4-(2'-nitrophenyl)-2,6-dimethyl-3,5-dicarbomethoxy-1,4-dihydropyridine] | 176 (≈ 508 µM) |  |  |  |  |  | 
COc1ccc(CCN(C)CCCC(C#N)(c2ccc(OC)c(OC)c2)C(C)C)cc1OC (stereo not drawn) [Verapamil] | 151 (≈ 332 µM) |  |  |  |  |  | 
